# Reference: PMC10755736, “Modulating Liquid–Liquid Phase Separation of Nck Adaptor Protein against Enteropathogenic Escherichia coli Infection” (ACS Central Science, 2023)
# Non-standard residues stand in square brackets, D forms with d. Residues, ends and D or L forms follow the SMILES beside them. *: point of attachment. Biotin = O=C1N[C@H]2[C@H](CS[C@H]2CCCCC(=O)*)N1; Benzoyl(3-SO2F) = O=C(c1cccc(S(=O)(=O)F)c1)*; pY = N[C@@H](Cc1ccc(OP(=O)(O)O)cc1)C(=O)O; Dap = NC[C@H](N)C(=O)O
# Legend:
# [1] = tested on: EPEC infection of Caco-2 cells; assay: EPEC infection assay of Caco-2 cells (CFU counts); assay type: cell-based, enteropathogenic Escherichia coli; conditions: with L17E-mediated delivery, L17E 40 μM
# Protocol: Lastly, to examine whether pretreatment of Caco-2 cells with L17E/p1 could prevent EPEC infection, we first established a bacterial infection assay (Figure 7a). Caco-2 cells were pretreated with L17E/p1 for 2 h. After excess peptides were removed, Caco-2 cells were then infected with EPEC at different multiplicity of infection (MOI) values (MOI is commonly defined as the ratio of infectious bacteria to cells in a culture) for 3 h, and extra bacterial cells were removed from the culture. Next, gentamicin was added to the cell culture to remove EPEC that are merely attached to the surface of Caco-2 cells, leaving only engulfed EPEC inside Caco2 cells to be counted (gentamicin treatment will not kill intracellular bacteria due to its cellular impermeability). After gentamicin was washed away, cells were lysed to release EPEC cells inside, and the cell lysates were diluted to count the number of EPEC cells as colony-forming units (cfu) on agar plates.
# Caco-2 cells were seeded in a 24-well plate at a density of 1×10^4 cells for 24 h and pretreated with peptide complexes for 2 h. After washing with DMEM, cells were infected with EPEC at selected MOI values for 3 h at 37 ℃. Cells were then treated with gentamicin ([…]) for 2 h and lysed with 1% […]
# Triton X-100 for 15 min. […]
# The sample was loaded onto 12% SDS/PAGE glycerol gel and then transferred onto a PVDF membrane using Bio-Rad […]. The membrane was blocked and incubated with a rabbit anti-Nck antibody (Abcam, Hong Kong) at 4 °C overnight, followed by a n anti -rabbit HRP -labeled secondary antibody (Abcam, Hong Kong).
# SPSS 23.0 statistical software was used to process experimental data. The differences between mean ± SEM of three independent experiments were assessed by Student's t -test.
# Nck = target: T1, Nck (Homo sapiens, UniProt P16333); assay: Crosslinking of peptides with recombinant Nck in vitro (SDS-PAGE, Western blotting); assay type: binding; conditions: peptide:Nck 5:1, 37 °C, PBS, 1 h; SDS-PAGE and anti-biotin Western blotting
# T1 construct: GST (followed by PreScission/HRV 3C site) (N, cleaved yes); made in house; host or cells: E. coli BL21(DE3)
# Description: Although peptide Y474 can block Nck-mediated LLPS, the requirement of a high concentration of the blocker peptide is hard to achieve inside the cell. […] The side chains of the Nck lysine residues are pointing toward the residues at pY+1 and pY+2 positions with distances of only 4 to 6 Å. This unique feature gives us an opportunity to design covalent blockers for Nck-SH2 by installing electrophiles at the pY+1 or pY+2 positions to enable a proximal conjugation reaction with one of the lysine residues. Covalent blockage through the characteristic lysine residues will maximize the specificity of the inhibitor toward Nck-SH2. As sulfonyl fluoride has been reported to react with proteinaceous nucleophiles such as lysine, histidine, or cysteine,[34] we installed a sulfonyl fluoride group on the side chain of diaminopropionic acid, giving an unnatural amino acid X1 at different positions such as pY+1 (Asp6) and pY+3 (Val8) of peptide EEHIpYDEVAAD. Besides the amino acid X1, we also included α-chloroacetyl-carrying amino acids X2 and X3, which may also react with proteineous nucleophiles. Electrophile-containing reactive peptides p1 to p11 were synthesized with a biotin tag at the N-termini (Figure 4b). After the reactive peptides were incubated with recombinant Nck protein at a 5:1 ratio at 37 °C in PBS for 1 h, the formation of covalently linked Nck–peptide conjugates could be observed, shown as new protein bands with molecular weights higher than that of Nck based on denatured SDS-PAGE and Western blotting analysis against biotin (Figure 4c). […] At 37 °C in PBS buffer, the 1:1 reaction efficiency reached 50% in 2 min (Figure S4 in the Supporting Information).
# Figure 4 Covalently reactive peptides designed based on a Tir peptide. (a) Crystal structure of Nck-SH2 in complex with a peptide EEHIpYDEVAAD from EPEC protein Tir (PDB: 2CI9). (b) List of synthetic reactive peptides. (c) Unnatural amino acids in the peptides. (d) SDS-PAGE (top) and Western blotting (bottom) analyses showing covalent conjugation of the peptides with Nck. […]
# Nck-SH2 = conditions: cited from earlier work
# Description: Phosphorylated Tir is known to bind to Nck-SH2. […] Also, the sequence of nephrin contains three Tyr-containing sequences that are similar to those of the Tir peptide: HLYDEV, PLYDEV, and GIYDQV (the potential phosphorylation sites are underscored), with a hydrophobic residue at the pY-1 site, and negatively charged residues at pY+1 and/or pY+2 (Figure 2c). Therefore, we reason that phosphorylation at these Tyr turns nephrin into p-nephrin, a ...
compound,measurement,setting,value
CC[C@H](C)[C@H](NC(=O)[C@H](Cc1c[nH]cn1)NC(=O)[C@H](CCC(=O)O)NC(=O)[C@H](CCC(=O)O)NC(=O)[C@@H]1CCCN1)C(=O)N[C@@H](Cc1ccc(OP(=O)(O)O)cc1)C(=O)N[C@@H](CC(=O)O)C(=O)N[C@@H](CCC(=O)O)C(=O)N[C@H](C(=O)N[C@@H](C)C(=O)N[C@@H](C)C(=O)N[C@@H](CC(=O)O)C(=O)N1CCC[C@H]1C(=O)NCC(N)=O)C(C)C [Y474],blockage of EPEC invasion/infection of Caco-2 cells,[1],can block EPEC invasion to Caco-2 cells
CC[C@H](C)[C@H](NC(=O)[C@H](Cc1c[nH]cn1)NC(=O)[C@H](CCC(=O)O)NC(=O)[C@H](CCC(=O)O)NC(=O)CCCC[C@@H]1SC[C@@H]2NC(=O)N[C@@H]21)C(=O)N[C@@H](Cc1ccc(OP(=O)(O)O)cc1)C(=O)N[C@@H](CC(=O)O)C(=O)N[C@@H](CCC(=O)O)C(=O)N[C@H](C(=O)N[C@@H](C)C(=O)N[C@@H](C)C(=O)N[C@@H](CNC(=O)c1cccc(S(=O)(=O)F)c1)C(N)=O)C(C)C [p7] (Biotin-EEHI[pY]DEVAA[Dap](Benzoyl(3-SO2F))-NH2),reactivity with Nck,Nck,noticeable reactivity
EEHIpYDEVAADP [12-residue pY-containing Tir peptide],binding to Nck-SH2,Nck-SH2,strong binder to Nck-SH2
